Data taken from ChEMBL document CHEMBL3804802, “Novel sulfonamide bearing coumarin scaffolds as selective inhibitors of tumor associated carbonic anhydrase isoforms IX and XII” (Bioorg Med Chem, 2016).

target: Carbonic anhydrase 9 (Homo sapiens, UniProt Q16790); assay: Inhibition of human carbonic anhydrase 9 using saturated CO2 as substrate incubated for 10 mins prior to testing by stopped-flow CO2 hydrase assay

Compared with `NS(=O)(=O)c1ccc2c(c1)sc1nc(-c3cc4ccccc4oc3=O)cn12`, `NS(=O)(=O)c1ccc2c(c1)sc1nc(-c3cc4cc(Cl)ccc4oc3=O)cn12` is 3.8-fold lower in Ki: 43.6 nM for the first, 11.4 nM for the second.

`NS(=O)(=O)c1ccc2c(c1)sc1nc(-c3cc4cc(Br)ccc4oc3=O)cn12` and `NS(=O)(=O)c1ccc(Nc2nc(-c3cc4cc(Br)ccc4oc3=O)cs2)cc1` are within 1.5-fold of each other in Ki: 24.9 nM for the first, 23.6 nM for the second.

`NS(=O)(=O)c1ccc(-n2cc(/C=N\Nc3nc(-c4cc5cc(Br)ccc5oc4=O)cs3)c(-c3ccccc3)n2)cc1` and `NS(=O)(=O)c1ccc(-n2cc(/C=N\Nc3nc(-c4cc5cc(Cl)ccc5oc4=O)cs3)c(-c3ccccc3)n2)cc1` are within 1.5-fold of each other in Ki: 21.6 nM for the first, 28.3 nM for the second.

First: NS(=O)(=O)c1ccc(-n2cc(/C=N\Nc3nc(-c4cc5ccccc5oc4=O)cs3)c(-c3ccc(F)cc3)n2)cc1
Second: Cc1ccc(-c2nn(-c3ccc(S(N)(=O)=O)cc3)cc2/C=N\Nc2nc(-c3cc4ccccc4oc3=O)cs2)cc1
The Ki of the first is 13-fold lower: 2.28 nM for the first, 28.6 nM for the second.

`NS(=O)(=O)c1ccc(-n2cc(/C=N\Nc3nc(-c4cc5cc(Br)ccc5oc4=O)cs3)c(-c3ccc(F)cc3)n2)cc1` and `Cc1ccc(-c2nn(-c3ccc(S(N)(=O)=O)cc3)cc2/C=N\Nc2nc(-c3cc4cc(Br)ccc4oc3=O)cs2)cc1` are within 1.5-fold of each other in Ki: 26.5 nM for the first, 26 nM for the second.

`Cc1ccc(-c2nn(-c3ccc(S(N)(=O)=O)cc3)cc2/C=N\Nc2nc(-c3cc4cc(Cl)ccc4oc3=O)cs2)cc1` and `NS(=O)(=O)c1ccc(-n2cc(/C=N\Nc3nc(-c4cc5cc(Cl)ccc5oc4=O)cs3)c(-c3ccc(Cl)cc3)n2)cc1` are within 1.5-fold of each other in Ki: 24.5 nM for the first, 28.1 nM for the second.

Going from `C/C(=N\Nc1ccc(S(N)(=O)=O)cc1)c1cc2ccccc2oc1=O` to `C/C(=N\Nc1ccc(S(N)(=O)=O)cc1)c1cc2cc(Cl)ccc2oc1=O`, the Ki falls from 58.6 nM to 2.35 nM (25-fold). The second binds more tightly here.

Going from `NS(=O)(=O)c1ccc(-n2cc(/C=N\Nc3nc(-c4cc5ccccc5oc4=O)cs3)c(-c3ccccc3)n2)cc1` to `NS(=O)(=O)c1ccc(-n2cc(/C=N\Nc3nc(-c4cc5ccccc5oc4=O)cs3)c(-c3ccc(Cl)cc3)n2)cc1`, the Ki falls from 19.7 nM to 2.32 nM (8.5-fold). The second binds more tightly here.

`NS(=O)(=O)c1ccc(Nc2nc(-c3cc4cc(Cl)ccc4oc3=O)cs2)cc1` and `NS(=O)(=O)c1ccc(Nc2nc(-c3cc4ccccc4oc3=O)cs2)cc1` are within 1.5-fold of each other in Ki: 25 nM for the first, 23.8 nM for the second.

`COc1ccc(-c2nn(-c3ccc(S(N)(=O)=O)cc3)cc2/C=N\Nc2nc(-c3cc4cc(Cl)ccc4oc3=O)cs2)cc1` and `COc1ccc(-c2nn(-c3ccc(S(N)(=O)=O)cc3)cc2/C=N\Nc2nc(-c3cc4cc(Br)ccc4oc3=O)cs2)cc1` are within 1.5-fold of each other in Ki: 20.4 nM for the first, 20.1 nM for the second.

Going from `COc1ccc(-c2nn(-c3ccc(S(N)(=O)=O)cc3)cc2/C=N\Nc2nc(-c3cc4ccccc4oc3=O)cs2)cc1` to `NS(=O)(=O)c1ccc(-n2cc(/C=N\Nc3nc(-c4cc5cc(Cl)ccc5oc4=O)cs3)c(-c3ccc(F)cc3)n2)cc1`, the Ki falls from 21.6 nM to 2.54 nM (8.5-fold). The second binds more tightly here.

`C/C(=N\Nc1ccc(S(N)(=O)=O)cc1)c1cc2cc(Br)ccc2oc1=O` and `NS(=O)(=O)c1ccc(-n2cc(/C=N\Nc3nc(-c4cc5cc(Br)ccc5oc4=O)cs3)c(-c3ccc(Cl)cc3)n2)cc1` are within 1.5-fold of each other in Ki: 23.6 nM for the first, 23.1 nM for the second.
